Measured values reported in patent US20240239801A1, “PYRIMIDO[5,4,D]PYRIMIDINE COMPOUNDS, COMPOSITIONS COMPRISING THEM AND USES THEREOF” (Université de Montréal, priority 2021, published 2024).
Like-named read-outs stand apart in the source and are kept apart here.

What was measured:
[1] = target: T1, ARAF (Homo sapiens, UniProt P10398); experiment: ARAF kinase activity assay (AlphaLISA p-MEK detection); assay type: biochemical; settings: Table A
T1 sequence (P10398 310-570 limits assumed): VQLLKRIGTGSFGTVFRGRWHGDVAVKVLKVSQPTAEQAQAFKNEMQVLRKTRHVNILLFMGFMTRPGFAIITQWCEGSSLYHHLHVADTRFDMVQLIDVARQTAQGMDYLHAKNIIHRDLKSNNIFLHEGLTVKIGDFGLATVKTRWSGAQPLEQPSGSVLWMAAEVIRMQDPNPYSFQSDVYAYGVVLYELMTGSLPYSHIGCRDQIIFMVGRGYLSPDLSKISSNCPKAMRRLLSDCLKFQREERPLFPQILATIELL
Experimental: (§1) Compound preparation: solid samples of each substances in 1dram vials were suspended in DMSO (Fisher Scientific) at a stock concentration of 20 mM. Stocks were kept at −20° C. and protected from light. If solubility of the compound at 20 mM appeared to be an issue, the initial concentration of the DMSO stock was changed to 10 mM or 5 mM.
(§2) In vitro enzymatic reactions were used for evaluating compounds intrinsic activity against BRAF, CRAF and ARAF. For BRAF and CRAF, 0.375 nM of purified GST-tagged kinases (cat #B4062-10UG and cat #R1656-10UG respectively from Millipore Sigma) were incubated with 75 nM of kinase-dead MEK1 substrate (cat #40075; BPS Bioscience) in the presence of 10 μM of Ultrapure ATP (cat #V9102; Promega; part V915A) with and without the test compound in a buffer containing 50 mM HEPES pH 7.5, 10 mM MgCl2, 1 mM EDTA, 0.01% Brij-35 and 2 mM DTT. Separate reactions were performed with the MEK1 substrate and ATP as a blank control. ARAF, kinase reactions were rigorously the same with the exception that kinase concentration was raised to 3.75 nM (cat #1768-0000-1; Reaction Biology).
(§3) For compound treatment, 5 μL/well of test substance solution are placed in a 384-well proxyplate (Perkin Elmer) and mixed with 2× concentrated kinase reactions. The dilution series is selected so that nine concentrations cover a range from 100 nM to 0.01 nM. […] The final concentration of DMSO in the assay is set at 0.05%.
ARAF kinase reactions were carried out for a total of 2 hours at 30° C. and then stopped by addition of EDTA at a final concentration of 40 mM. Reactions were then detected using the AlphaLISA® SureFire® Ultra™ p-MEK ½ (Ser218/222) (PerkinElmer) kit. Reactions were performed with 5 μL of kinase reaction according to the manufacturer's specifications in 384-well proxyplates (Perkin Elmer) followed by overnight incubation of the reactions at room temperature in a humidified chamber. After completion of the detection reactions, the signals were recorded on a Synergy Neo2 plate reader (Biotek) equipped with AlphaLISA® filters. The effect of each compound dilution on the pMEK signal generated by ARAF reactions was expressed in % inhibition and calculated as follows. An internal 100% inhibition control (average of luminescence in kinase reactions comprising kinase dead MEK1 substrate alone) was included in each plate to measure of pMEK background and was subtracted from each data point. The average of DMSO (vehicle) controls (set as 0% inhibition) was also established and used to calculate % inhibition:
(§4) IC50 values were obtained by plotting the kinase inhibition values and fitting the dose-activity curves using a log(agonist) versus response−variable slope (four parameters) function using either GraphPadPrism (V7.0) or Dotmatics Screening Ultra platform. Standards included in the ARAF kinase assay were Belvarafenib (MedChem Express cat #HY-109080; CAS #1446113-23-0), LXH254 (MedChem Express cat #HY-112089; CAS #1800398-38-2) and BGB283 (cat #HY-18957; CAS #1446090-79-4).

[2] = target: CRAF (Homo sapiens, UniProt P04049); experiment: CRAF kinase activity assay (ADP-Glo); assay type: biochemical
CRAF, sequence (P04049 whole entry): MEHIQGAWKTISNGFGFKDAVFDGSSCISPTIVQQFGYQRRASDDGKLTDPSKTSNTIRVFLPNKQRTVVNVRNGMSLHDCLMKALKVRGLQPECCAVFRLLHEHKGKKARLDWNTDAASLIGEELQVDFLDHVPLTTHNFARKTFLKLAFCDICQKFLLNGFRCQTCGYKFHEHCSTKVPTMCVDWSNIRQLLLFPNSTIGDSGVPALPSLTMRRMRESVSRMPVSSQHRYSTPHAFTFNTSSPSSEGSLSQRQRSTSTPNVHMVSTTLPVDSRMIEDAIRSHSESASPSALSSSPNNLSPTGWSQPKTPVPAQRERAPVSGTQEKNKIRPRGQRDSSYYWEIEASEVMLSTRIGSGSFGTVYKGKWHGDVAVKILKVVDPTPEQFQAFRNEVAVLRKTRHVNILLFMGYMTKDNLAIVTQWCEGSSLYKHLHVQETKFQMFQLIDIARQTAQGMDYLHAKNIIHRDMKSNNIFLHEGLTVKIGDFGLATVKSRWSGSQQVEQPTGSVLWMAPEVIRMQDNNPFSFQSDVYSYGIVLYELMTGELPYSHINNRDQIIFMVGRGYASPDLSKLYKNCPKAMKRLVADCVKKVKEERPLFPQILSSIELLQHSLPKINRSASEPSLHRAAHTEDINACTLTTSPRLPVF
Experimental: as §1, §2, §3
BRAF and CRAF kinase reactions were carried out for a total of 2 hours at 30° C. and then stopped by ½ dilution in ADP-Glo Reagent (cat #V9102; Promega; part V912C). Reactions were then incubated for 1 h at room temperature before addition of one volume of Kinase Detection Reagent (cat #V9102; Promega; part V917A). Plates were then equilibrated at room temperature for 30 minutes before detection of luminescence on a Synergy Neo2 plate reader (Biotek). The effect of each compound dilution on BRAF and CRAF kinase activity was expressed as % inhibition and calculated as follows. First, the internal 100% inhibition control (average of luminescence in kinase reactions comprising kinase dead MEK1 substrate alone) was subtracted from each data point. The average of DMSO (vehicle) controls (set as 0% inhibition) was established and used to calculate % inhibition:
as §4

[3] = tested on: SW480 pERK; experiment: Phospho-ERK inhibition, AlphaLISA SureFire Ultra p-ERK 1/2; assay type: cell-based, human; settings: for IC50: 1 h treatment; for SW480 (Ymin %): lowest value of the pERK IC50 curve
How it was run: (§5)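 IC50 derived by four-parameter fitting of % inhibition, with DMSO as 0% and 1 μM trametinib subtracted as background. Signal is AlphaLISA p-ERK1/2 (Thr202/Tyr204) in lysates of overnight-seeded cells (RPMI-1640, 5% FBS) treated 1 h with ten concentrations from 30 or 10 μM to 0.33 nM, 0.5% DMSO.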

[4] = tested on: HCT116 pERK; experiment: as above; assay type: cell-based, human; settings: for HCT116 (Ymin %): lowest value of the pERK IC50 curve; for HCT116 pERK % Ymin (lowest value of the IC50 curve): value in brackets, Ymin above −20% = minimal or no paradoxical induction
How it was run: as §5

[5] = target: T2, BRAF (Homo sapiens, UniProt P15056); experiment: BRAF kinase activity assay (ADP-Glo); assay type: biochemical
T2 construct: GST; purchased Millipore Sigma B4062-10UG
T2 sequence (P15056 whole entry): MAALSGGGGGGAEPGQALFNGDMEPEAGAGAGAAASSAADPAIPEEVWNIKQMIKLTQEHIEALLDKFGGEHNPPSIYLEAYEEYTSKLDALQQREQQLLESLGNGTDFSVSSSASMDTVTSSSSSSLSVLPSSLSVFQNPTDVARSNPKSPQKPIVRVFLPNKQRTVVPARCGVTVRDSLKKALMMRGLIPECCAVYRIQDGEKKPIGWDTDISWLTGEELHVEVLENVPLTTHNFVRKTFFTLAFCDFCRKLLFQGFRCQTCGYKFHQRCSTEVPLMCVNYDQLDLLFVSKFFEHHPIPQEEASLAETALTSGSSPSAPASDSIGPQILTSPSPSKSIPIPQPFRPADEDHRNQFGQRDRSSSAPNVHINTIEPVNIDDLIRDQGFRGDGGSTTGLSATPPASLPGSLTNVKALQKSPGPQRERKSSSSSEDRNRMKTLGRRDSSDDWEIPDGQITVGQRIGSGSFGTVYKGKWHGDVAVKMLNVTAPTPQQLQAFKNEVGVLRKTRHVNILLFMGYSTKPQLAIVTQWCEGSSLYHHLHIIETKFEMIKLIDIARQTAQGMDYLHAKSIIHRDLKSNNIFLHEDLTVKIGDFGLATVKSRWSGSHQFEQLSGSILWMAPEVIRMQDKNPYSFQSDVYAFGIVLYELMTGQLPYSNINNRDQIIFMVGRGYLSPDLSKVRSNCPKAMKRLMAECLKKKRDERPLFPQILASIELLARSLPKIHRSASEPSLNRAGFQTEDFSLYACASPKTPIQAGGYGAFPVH
How it was run: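 GST-tagged BRAF (0.375 nM) was reacted with 75 nM kinase-dead MEK1 and 10 μM ATP for 2 h at 30 °C in HEPES pH 7.5 buffer with MgCl2, EDTA, Brij-35 and DTT. Compounds were tested at nine concentrations from 100 nM to 0.01 nM with 0.05% DMSO final. ADP-Glo luminescence gave % inhibition, and IC50 came from a four-parameter fit.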

[6] = Table 3, read-out: SW480 PERK IC50

Row | Compound | IC50 ([2]; Table 3) | IC50 [3, 6] | SW480 (Ymin %) ([3]; Table 3) | IC50 ([4]; Table 3, 1 h treatment) | HCT116 (Ymin %) ([4]; Table 3) | IC50 ([5]; Table 3) | further results
1 | O=C1CCc2c(Oc3ccc4c(c3)[C@@H]3[C@H](O4)[C@H]3c3nc4ccc(C(F)(F)F)cc4[nH]3)ccnc2N1 [BGB283, reference compound] | – | – | – | – | – | – | IC50 [1]: > 20 nM
2 | COc1ccc(S(=O)(=O)Nc2ccc(F)c(Nc3ncnc4cnc(SC)nc34)c2F)cc1 [Example 1] | – | – | – | – | – | – | IC50 ([2]; Table 2): > 50 nM; IC50 ([3]; Homo sapiens, SW480, Table 2, read-out: SW480 PERK IC50 (UM)): 1000 to 10000 nM; SW480 (Ymin %) ([3]; Table 2): 6%; IC50 ([4]; Homo sapiens, HCT-116, Table 2, 1 h treatment): 10000 to 30000 nM; IC50 ([5]; Table 2): > 10 nM
3 | COc1ccc(S(=O)(=O)Nc2ccc(F)c(Nc3ncnc4cnc(N5CC[C@H](F)C5)nc34)c2F)c(C)c1 [Example 57] | > 50 nM | 1000 to 10000 nM | −2% | 1000 to 10000 nM | −2% | > 10 nM | –
4 | Cc1ncn(-c2ncc3ncnc(Nc4c(F)ccc(NS(=O)(=O)c5ccc(Cl)cc5Cl)c4F)c3n2)c1C [Example 62] | 10 to 50 nM | 500 to 1000 nM | 2% | 1000 to 10000 nM | 11% | 1 to 10 nM | –
5 | O=S(=O)(Nc1ccc(F)c(Nc2ncnc3cnc(-n4cnc5ccccc54)nc23)c1F)c1ccc(Cl)cc1Cl [Example 63] | < 10 nM | 1000 to 10000 nM | 1% | 1000 to 10000 nM | −2% | 1 to 10 nM | –
6 | O=S(=O)(Nc1ccc(F)c(Nc2ncnc3cnc(-n4cnc5ccccc54)nc23)c1F)c1cccc(Cl)c1Cl [Example 81] | < 10 nM | – | 3% | – | – | < 1 nM | IC50 ([3]; Homo sapiens, SW480, Table 3, read-out: SW480 PERK IC50): < 500 nM; IC50 ([4]; Homo sapiens, HCT-116, Table 3, 1 h treatment): < 500 nM
7 | Cc1c(F)cccc1S(=O)(=O)Nc1ccc(F)c(Nc2ncnc3cnc(-n4cnc5c(N)cccc54)nc23)c1F [Example 82] | < 10 nM | < 500 nM | 3.2% | < 500 nM | −10% | 1 to 10 nM | –
8 | Cc1c(F)cccc1S(=O)(=O)Nc1ccc(F)c(Nc2ncnc3cnc(-n4cnc5ccccc54)nc23)c1F [Example 83] | < 10 nM | < 500 nM | −2% | < 500 nM | −10% | 1 to 10 nM | –
9 | COc1ccc(S(=O)(=O)Nc2ccc(F)c(Nc3ncnc4c(N)nc(-n5cnc6ccccc65)nc34)c2F)c(C)c1 [Example 88] | – | – | – | – | – | – | IC50 ([2]; Table 4): > 50 nM; IC50 ([3]; Homo sapiens, SW480, Table 4, read-out: SW480 PERK IC50): 1000 to 10000 nM; SW480 (Ymin %) ([3]; Table 4): 2%; IC50 ([4]; Homo sapiens, HCT-116, Table 4, 1 h treatment): 1000 to 10000 nM; IC50 ([5]; Table 4): > 10 nM
10 | O=S(=O)(Nc1ccc(F)c(Nc2ncnc3cnc(-n4cnc5ccccc54)nc23)c1F)c1cccc(Cl)c1C(F)(F)F [Example 156] | < 10 nM | – | – | 500 to 1000 nM | – | 1 to 10 nM | –
11 | O=S(=O)(Nc1ccc(F)c(Nc2ncnc3cnc(-n4cnc5ccccc54)nc23)c1F)c1scc(Cl)c1Cl [Example 157] | < 10 nM | – | – | < 500 nM | 0% | < 1 nM | –
12 | CCC1(O)CCN(c2cccc3c2ncn3-c2ncc3ncnc(Nc4c(F)ccc(NS(=O)(=O)c5cccc(Cl)c5C(F)(F)F)c4F)c3n2)CC1 [Example 158] | < 10 nM | – | – | < 500 nM | −1% | 1 to 10 nM | –
13 | O=S(=O)(Nc1cc(F)c(F)c(Nc2ncnc3cnc(-n4cnc5ccccc54)nc23)c1F)c1cccc(Cl)c1Cl [Example 160] | – | – | – | – | – | – | IC50 ([2]; CRAF biochemical kinase assay): < 10 nM; IC50 ([4]; HCT116 cells, pERK): < 500 nM; HCT116 pERK % Ymin (lowest value of the IC50 curve) ([4]; HCT116 cells): −9%; IC50 ([5]; BRAF biochemical kinase assay): 1 to 10 nM
14 | O=S(=O)(Nc1cc(F)c(F)c(Nc2ncnc3cnc(-n4nnc5ccccc54)nc23)c1F)c1cccc(Cl)c1Cl [Example 161] | – | – | – | – | – | – | IC50 ([2]; CRAF biochemical kinase assay): < 10 nM; IC50 ([4]; HCT116 cells, pERK): 1000 to 10000 nM; HCT116 pERK % Ymin (lowest value of the IC50 curve) ([4]; HCT116 cells): −2.7%; IC50 ([5]; BRAF biochemical kinase assay): 1 to 10 nM
15 | Cc1ccc(NC(=O)c2ccnc(C(F)(F)F)c2)cc1-c1cc(OCCO)nc(N2CCOCC2)c1 [LXH254, reference compound] | – | – | – | – | – | – | IC50 [1]: > 20 nM
